Test results reported in ChEMBL document CHEMBL6103545, “Discovery of GS-2278, a Potent and Selective LPAR1 Antagonist for the Treatment of Idiopathic Pulmonary Fibrosis” (J Med Chem, 2025).

Key:
[1] = Lipophilicity, logD of compound at pH 7.4; format: physicochemical; settings: buffer
[2] = Metabolic stability in Beagle dog liver microsomes assessed as intrinsic clearance at 1 uM by LC/MS/MS analysis; format: ADME, Canis lupus familiaris, Microsome; settings: read-out: CLH (converted)
[3] = Metabolic stability in cynomolgus monkey liver microsomes assessed as intrinsic clearance at 1 uM by LC/MS/MS analysis; format: ADME, Macaca fascicularis, Microsome; settings: read-out: CLH (converted)
[4] = Volume of distribution in Beagle dog at 1 mg/kg, iv measured after 24 hrs by LC/MS/MS analysis; format: ADME, organism-based, Canis lupus familiaris; settings: in vivo
[5] = AUC (0 to 24 hrs) in male Sprague-Dawley rat at 5 mg/kg, po measured after 24 hrs by LC/MS/MS analysis; format: ADME, organism-based; settings: in vivo
[6] = AUC (0 to 24 hrs) in Beagle dog at 5 mg/kg, po measured after 24 hrs by LC/MS/MS analysis; format: ADME, organism-based, Canis lupus familiaris; settings: in vivo
[7] = Drug metabolism in Beagle dog hepatocyte assessed as (R)-1-(2,5-Difluoropyridin-3-yl)ethyl[4-(5-Aminopyridin-2-yl)-1-methyl-1H-1,2,3-triazol-5-yl]carbamate Hydrochloride metabolite formation at 1 uM by LC/MS/MS analysis; format: ADME, Canis lupus familiaris; settings: hepatocytes
[8] = Drug metabolism in female CD-1 mouse assessed as (R)-1-(2,5-Difluoropyridin-3-yl)ethyl (4-(5-Acetamidopyridin-2-yl)-1-methyl-1H-1,2,3-triazol-5-yl)carbamate metabolite formation at 1 uM by LC/MS/MS analysis; format: ADME
[9] = target: T1, Lysophosphatidic acid receptor 1 (Homo sapiens, UniProt Q92633); experiment: Antagonist activity at human LPA1 receptor overexpressed in CHO cells pre-incubated for 1 hr followed by LPA addition by fluorescence based FLIPR calcium assay; format: functional, cell-based
T1 sequence (Q92633 whole entry): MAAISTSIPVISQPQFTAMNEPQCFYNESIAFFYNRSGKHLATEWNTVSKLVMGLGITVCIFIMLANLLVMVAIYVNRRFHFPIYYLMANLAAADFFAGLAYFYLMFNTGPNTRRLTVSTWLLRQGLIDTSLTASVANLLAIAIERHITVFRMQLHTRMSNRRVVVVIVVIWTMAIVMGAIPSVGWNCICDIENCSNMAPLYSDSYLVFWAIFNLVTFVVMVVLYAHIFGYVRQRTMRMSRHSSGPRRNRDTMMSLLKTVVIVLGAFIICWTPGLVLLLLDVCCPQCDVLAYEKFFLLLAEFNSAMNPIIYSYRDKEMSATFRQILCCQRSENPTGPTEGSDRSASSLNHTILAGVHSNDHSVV

[10] = target: T2, Lysophosphatidic acid receptor 3 (Homo sapiens, UniProt Q9UBY5); experiment: Antagonist activity at human LPA3 receptor overexpressed in CHO cells pre-incubated for 1 hr followed by LPA addition by fluorescence based FLIPR calcium assay; format: functional, cell-based
T2 sequence (Q9UBY5 whole entry): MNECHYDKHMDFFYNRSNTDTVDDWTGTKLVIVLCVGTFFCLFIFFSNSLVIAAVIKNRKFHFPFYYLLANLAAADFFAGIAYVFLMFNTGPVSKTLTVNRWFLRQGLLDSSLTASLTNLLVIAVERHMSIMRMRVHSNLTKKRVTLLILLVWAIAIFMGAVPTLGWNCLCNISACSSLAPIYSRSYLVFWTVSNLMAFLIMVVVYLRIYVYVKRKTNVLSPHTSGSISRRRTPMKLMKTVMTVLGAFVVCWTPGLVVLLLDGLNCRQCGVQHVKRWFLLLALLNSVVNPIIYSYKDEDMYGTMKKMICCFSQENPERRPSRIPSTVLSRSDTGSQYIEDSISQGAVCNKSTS

[11] = target: T1, Lysophosphatidic acid receptor 1; experiment: Antagonist activity at human LPA1 receptor expressed in HEK293 cells assessed as beta-arrestin2 effector recruitment incubated for 10 mins by BRET assay; format: functional, cell-based
[12] = target: T1, Lysophosphatidic acid receptor 1; experiment: Antagonist activity at human wild-type LPA1 receptor expressed in HEK293 cells assessed as internalization incubated for 30 mins by BRET assay; format: cell-based
[13] = target: T1, Lysophosphatidic acid receptor 1; experiment: Antagonist activity at LPA1 receptor in serum starved human Primary lung fibroblast cells pre-incubated for 1 hr followed by LPA stimulation and measured after 30 min by MRTF-A assay; format: cell-based
[14] = Apparent permeability from apical to basolateral side in human Caco-2 cells at 10 uM; format: ADME, cell-based
BCRP (human) [15] = experiment: Apparent permeability from apical to basolateral side of human BCRP transfected MDCK cells measured after 20 min by LC/MS/MS analysis; format: ADME, cell-based, Canis lupus familiaris; settings: dog
BCRP (human) [16] = experiment: Apparent permeability from basolateral to apical side of human BCRP transfected MDCK cells measured after 20 min by LC/MS/MS analysis; format: ADME, cell-based, Canis lupus familiaris; settings: dog
[17] = Plasma protein binding in female CD-1 mouse assessed as unbound fraction at 2 uM incubated for 24 hrs by LC-MS analysis; format: ADME, cell-free
Bile salt export pump = Bile salt export pump (Homo sapiens, UniProt O95342); experiment: Inhibition of BSEP in human hepatocyte by LC-MS analysis; format: cell-based
Bile salt export pump, sequence (O95342 whole entry): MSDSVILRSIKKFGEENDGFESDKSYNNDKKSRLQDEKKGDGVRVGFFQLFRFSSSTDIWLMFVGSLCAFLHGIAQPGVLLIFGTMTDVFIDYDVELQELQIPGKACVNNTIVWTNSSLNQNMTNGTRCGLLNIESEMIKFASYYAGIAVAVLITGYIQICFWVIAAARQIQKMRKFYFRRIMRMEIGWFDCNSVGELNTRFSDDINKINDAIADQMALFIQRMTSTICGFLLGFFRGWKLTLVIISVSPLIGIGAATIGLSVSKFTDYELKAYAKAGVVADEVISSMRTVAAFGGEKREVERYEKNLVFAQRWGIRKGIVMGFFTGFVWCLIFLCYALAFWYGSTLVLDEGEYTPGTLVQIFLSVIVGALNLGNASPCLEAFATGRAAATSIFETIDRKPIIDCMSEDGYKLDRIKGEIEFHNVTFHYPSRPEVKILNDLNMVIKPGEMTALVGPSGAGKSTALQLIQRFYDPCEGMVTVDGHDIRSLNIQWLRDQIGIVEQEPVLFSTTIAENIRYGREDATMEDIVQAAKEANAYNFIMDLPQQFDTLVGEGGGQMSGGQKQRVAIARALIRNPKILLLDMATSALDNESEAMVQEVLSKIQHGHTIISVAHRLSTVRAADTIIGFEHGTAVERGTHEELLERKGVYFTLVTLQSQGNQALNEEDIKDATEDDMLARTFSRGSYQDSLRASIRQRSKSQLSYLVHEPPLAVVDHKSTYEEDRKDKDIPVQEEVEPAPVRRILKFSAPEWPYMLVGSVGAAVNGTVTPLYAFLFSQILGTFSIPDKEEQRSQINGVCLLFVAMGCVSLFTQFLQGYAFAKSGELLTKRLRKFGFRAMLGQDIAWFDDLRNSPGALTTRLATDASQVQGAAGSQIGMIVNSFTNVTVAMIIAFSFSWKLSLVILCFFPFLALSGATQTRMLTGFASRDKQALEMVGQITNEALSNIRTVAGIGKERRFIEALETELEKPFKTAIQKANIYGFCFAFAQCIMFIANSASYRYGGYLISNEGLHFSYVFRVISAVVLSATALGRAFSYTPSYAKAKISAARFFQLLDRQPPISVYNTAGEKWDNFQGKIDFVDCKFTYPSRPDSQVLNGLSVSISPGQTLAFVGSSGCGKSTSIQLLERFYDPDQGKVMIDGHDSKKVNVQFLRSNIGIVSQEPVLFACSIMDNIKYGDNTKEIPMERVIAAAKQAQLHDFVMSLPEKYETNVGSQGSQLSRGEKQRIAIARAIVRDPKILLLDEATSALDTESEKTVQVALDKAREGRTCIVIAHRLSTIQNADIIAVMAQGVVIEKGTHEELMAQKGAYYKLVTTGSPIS

Cytochrome P450 2B6 = target: T3, Cytochrome P450 2B6 (Homo sapiens, UniProt P20813); experiment: Inhibition of CYP2B6 (unknown origin) using midazolam as substrate; format: ADME
T3 sequence (P20813 whole entry): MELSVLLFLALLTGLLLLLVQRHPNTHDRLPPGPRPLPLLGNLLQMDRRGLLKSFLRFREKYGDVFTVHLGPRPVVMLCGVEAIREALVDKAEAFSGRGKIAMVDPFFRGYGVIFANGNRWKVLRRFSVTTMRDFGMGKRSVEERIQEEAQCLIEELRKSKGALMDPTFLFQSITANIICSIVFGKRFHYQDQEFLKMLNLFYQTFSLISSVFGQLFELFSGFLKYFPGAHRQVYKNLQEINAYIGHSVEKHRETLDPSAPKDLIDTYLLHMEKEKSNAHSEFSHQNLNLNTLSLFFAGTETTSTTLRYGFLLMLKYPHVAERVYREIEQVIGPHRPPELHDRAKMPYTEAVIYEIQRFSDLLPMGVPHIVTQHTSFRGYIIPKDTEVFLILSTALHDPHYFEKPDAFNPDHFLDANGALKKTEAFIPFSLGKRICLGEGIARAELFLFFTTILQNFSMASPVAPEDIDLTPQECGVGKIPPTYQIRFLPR

Cytochrome P450 2C9 = Cytochrome P450 2C9 (Homo sapiens, UniProt P11712); experiment: Inhibition of CYP2C9 (unknown origin) using midazolam as substrate; format: ADME
Cytochrome P450 2C9, sequence (P11712 whole entry): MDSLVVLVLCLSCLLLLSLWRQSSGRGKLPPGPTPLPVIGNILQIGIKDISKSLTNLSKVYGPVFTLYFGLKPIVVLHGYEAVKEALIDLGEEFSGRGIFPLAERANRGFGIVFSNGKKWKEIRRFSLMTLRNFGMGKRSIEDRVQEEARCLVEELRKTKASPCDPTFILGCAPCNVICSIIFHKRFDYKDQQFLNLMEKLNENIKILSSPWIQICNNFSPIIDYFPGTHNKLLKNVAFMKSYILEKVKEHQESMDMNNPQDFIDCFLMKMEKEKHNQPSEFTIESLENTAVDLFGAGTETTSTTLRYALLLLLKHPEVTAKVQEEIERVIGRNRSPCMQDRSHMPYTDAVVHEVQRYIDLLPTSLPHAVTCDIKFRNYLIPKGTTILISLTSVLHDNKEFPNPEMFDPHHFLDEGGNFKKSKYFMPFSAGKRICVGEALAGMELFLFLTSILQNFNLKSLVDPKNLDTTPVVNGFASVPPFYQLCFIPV

Cytochrome P450 2C19 = Cytochrome P450 2C19 (Homo sapiens, UniProt P33261); experiment: Inhibition of CYP2C19 (unknown origin) using midazolam as substrate; format: ADME
Cytochrome P450 2C19, sequence (P33261 whole entry): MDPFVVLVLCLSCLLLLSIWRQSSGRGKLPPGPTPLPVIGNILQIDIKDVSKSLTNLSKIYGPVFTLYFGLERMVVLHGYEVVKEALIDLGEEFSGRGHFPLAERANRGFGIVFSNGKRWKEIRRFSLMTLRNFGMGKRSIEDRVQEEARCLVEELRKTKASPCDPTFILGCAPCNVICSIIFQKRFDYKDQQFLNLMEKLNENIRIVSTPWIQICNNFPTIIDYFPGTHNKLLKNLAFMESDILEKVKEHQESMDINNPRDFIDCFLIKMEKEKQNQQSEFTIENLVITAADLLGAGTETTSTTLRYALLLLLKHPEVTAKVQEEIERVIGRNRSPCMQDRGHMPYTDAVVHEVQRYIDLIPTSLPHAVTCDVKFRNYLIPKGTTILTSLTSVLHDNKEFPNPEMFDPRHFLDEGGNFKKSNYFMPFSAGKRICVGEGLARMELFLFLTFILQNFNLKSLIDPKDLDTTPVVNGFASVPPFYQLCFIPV

Cytochrome P450 3A = Cytochrome P450 3A (Homo sapiens, UniProt P08684+P20815+Q9HB55+P24462); experiment: Inhibition of CYP3A (unknown origin) using midazolam as substrate; format: ADME, protein assay
Cytochrome P450 3A4 = Cytochrome P450 3A4 (Homo sapiens, UniProt P08684); experiment: Inhibition of CYP3A4 (unknown origin) using testosterone as substrate; format: ADME
Cytochrome P450 3A4, sequence (P08684 whole entry): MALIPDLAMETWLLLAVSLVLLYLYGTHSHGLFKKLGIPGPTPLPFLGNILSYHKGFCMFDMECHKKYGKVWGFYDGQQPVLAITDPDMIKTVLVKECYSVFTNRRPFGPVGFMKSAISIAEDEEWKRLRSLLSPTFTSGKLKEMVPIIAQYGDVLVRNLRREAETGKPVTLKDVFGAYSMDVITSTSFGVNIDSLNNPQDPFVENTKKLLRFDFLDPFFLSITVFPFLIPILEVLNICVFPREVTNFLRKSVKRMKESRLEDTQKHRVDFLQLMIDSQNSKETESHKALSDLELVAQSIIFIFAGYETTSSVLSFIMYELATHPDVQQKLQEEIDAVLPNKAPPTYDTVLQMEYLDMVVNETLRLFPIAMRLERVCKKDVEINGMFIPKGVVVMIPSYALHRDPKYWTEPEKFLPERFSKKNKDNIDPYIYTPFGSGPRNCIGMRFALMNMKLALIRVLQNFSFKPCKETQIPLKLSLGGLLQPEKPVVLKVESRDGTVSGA

[18] = Toxicity in Beagle dog CNS at 20 mg/kg/day, po measured after 28 days by radiotelemetry; format: organism-based, Canis lupus familiaris; settings: in vivo, 672 h, time 28 day
[19] = Toxicity in Beagle dog CNS at 30 mg/kg/day, po measured after 28 days by radiotelemetry; format: organism-based, Canis lupus familiaris; settings: in vivo, 672 h, time 28 day

Compound: C[C@@H](OC(=O)Nc1c(-c2ccc(NC(=O)c3cnc(C(F)(F)F)nc3)cn2)nnn1C)c1cc(F)cnc1F
- logD [1]: 2.7
- CLint scaled at 1 µM [2]: 1.5 mL/min/kg
- CLint scaled at 1 µM [3]: 7.5 mL/min/kg
- Vd [4]: 0.4 L/kg
- AUC(0-t) at 24 h [5]: 5.1 µM·h
- AUC(0-t) at 24 h [6]: 54 µM·h
- Drug metabolism [7]: metabolite_detected
- Drug metabolism [8]: metabolite_detected
- EC50 [9]: 38 nM
- EC50 [10]: > 10000 nM
- EC50 [11]: 134 nM
- EC50 [12]: 11.7 nM
- EC50 [13]: 8 nM
- Papp A→B at 10 µM [14]: 0.4 ×10⁻⁶ cm/s
- Papp A→B at 20 min (BCRP (human) [15]): < 0.01 ×10⁻⁶ cm/s
- Papp B→A at 20 min (BCRP (human) [16]): 12 ×10⁻⁶ cm/s
- fraction unbound at 24 h, 2 µM [17]: 0.066
- IC50 (Bile salt export pump): 22000 nM
- inhibition (INH) (Cytochrome P450 2B6): Not_active
- inhibition (INH) (Cytochrome P450 2C9): Not_active
- inhibition (INH) (Cytochrome P450 2C19): Not_active
- inhibition (INH) (Cytochrome P450 3A): Not_active
- inhibition (INH) (Cytochrome P450 3A4): Time-dependent-effect
- Activity [18]: Non-toxic
- Activity [19]: Non-toxic
